Experimental data from US9232798B2, “Pesticidal composition and its use” (SUMITOMO CHEMICAL COMPANY, LIMITED, priority 2010, dated 2016).

Test system: Rhizoctonia solani
Assay: Soybean seed treatment test against Rhizoctonia solani in contaminated soil (Test Example)
Format: in vivo, Rhizoctonia solani on soybean (variety: Natto shoryu)
Details: carboxamide compound alone 0.2 g/100 kg of seeds (no fipronil), soybean grown 20 days in soil contaminated by Rhizoctonia solani, from disease severity versus non-treated plot
Protocol: A cyclohexanone solution (100 microL) containing prescribed amount (weight) of a test compound was applied on seeds of soybean (variety: Natto shoryu) (10 g) by using a rotary apparatus for seed treatment (Seed dresser, manufactured by Hans-Ulrich Hege GmbH).
One day after the treatment, plastic pot was filled with soil contaminated by Rhizoctonia solani, and the seeds treated with the test compounds were seeded in the soil and cultivated in a glass-greenhouse for 20 days (hereinafter referred to as “treated plot”).
Thereafter, the presence of disease caused by Rhizoctonia solani in the young plants which germinated from each seed was observed and disease severity was calculated according to the following calculation formula (1).
On the other hand, seeds of soybean which were not treated as above were cultivated in the same way as above (hereinafter referred to as “non-treated plot”) and the disease severity in “non-treated plot” was calculated in the same way as above “treated plot”. On the basis of the above disease severity in “treated plot” and the “non-treated plot”, efficacy in “treated plot” was evaluated according to the following calculation formula (2). […]

## CC1CC(C)(C)c2cccc(NC(=O)c3cn(C)nc3C(F)F)c21 (stereo not shown) [carboxamide compound (1)]
  efficacy (%): 42.1%
